Source: paper PMC5374710, “Discovery of the first dual GSK3β inhibitor/Nrf2 inducer. A new multitarget therapeutic strategy for Alzheimer’s disease” (Scientific Reports, 2017)

Columns and labels:
SH-SY5Y cells [1] = assay: Neuroprotection against rotenone/oligomycin A (R/O), MTT; format: cell-based; settings: 1 μM, 24 h pre-incubation, 24 h co-incubation with rotenone/oligomycin A 30/10 μM
Protocol: Figure 5 Compounds 5a–t exert neuroprotection in in vitro models of AD. […] Then, treatments were removed and cells were co-incubated with each treatment and okadaic acid for 18 h or R/O for 24 h. Cell viability was measured by the MTT reduction assay. Values are expressed as mean ± SEM of five independent experiments in triplicate. ***p < 0.001; **p < 0.01 respect to toxic stimuli treated cells, considered as 0% of protection.
As stated in the Introduction, oxidative stress is considered one of the main causes of neuronal death in AD. Therefore, we were interested in evaluating the potential antioxidant activity of compounds 5a–t in a model of oxidative stress and energy depletion, which in turn increase cell death. For this purpose, we selected the combination of rotenone (30 μM) and oligomycin A (10 μM) (R/O) to induce neurotoxicity as a model system[23][40] to evaluate the potential neuroprotective activity of the compounds. Melatonin, a well-known antioxidant natural compound, was included as a positive control.
(§1) A pre- and co-incubation protocol was followed. Cells were pre-incubated with the corresponding compound at 1 μM in neuroblastoma cells culture medium. After 24 h, medium was removed and replaced with 1% FBS neuroblastoma culture media containing the corresponding compound (1 μM) and the toxic stimuli, the mixture of rotenone and oligomycin A (30 μM/10 μM respectively) or okadaic acid at 20 nM. Cells were co-incubated for further 24 h with the rotenone and oligomycin A solution or 18 h with the okadaic acid solution. Control cells were incubated with the same amount of DMSO without any drug. After the co-incubation period, cell viability was assessed by the MTT-reduction method.
as §1, with “A pre” for “A pre-”, “1 µM” for “1 μM”, “compound at 1 µM” for “compound (1 μM)”, “stimuli, namely a” for “stimuli, the”, “(30 µM / 10 µM” for “(30 μM/10 μM”, “drug. […]” for “drug.”
The percentage of protection was calculated as follows: the percentage of cell survival obtained with the toxic stimuli-treated cells subtracted to 100 was normalized to 100 % of cell death. The percentage of protection was obtained by subtracting the percentage of cell death in presence of the tested compound to 100%.

HepG2 cells = assay: Hepatotoxicity in HepG2 cell line (MTT); settings: 24 h
Protocol: Thus, it is relevant to study the potential neurotoxicity and hepatotoxicity of the novel dual GSK3β inhibitors-Nrf2 inducers 5a–t.
(§2) Viability was measured as MTT reduction in presence of increasing concentrations of derivatives. Values are expressed as LD50 calculated from dose-response curves of four different concentrations.
HepG2 cells were cultured according to supplier indications in EMEM supplemented with 10 % heat-inactivated FBS, 100 µg/mL streptomycin and 100 units/mL penicillin. Cells were maintained at 37 °C in humidified atmosphere of 95 % air and 5 % CO2. For experimental procedures, cells were cultured in 96-well plates at density of 1x10^5 cells/well. Treatments were performed in 1% FBS medium unless other concentration was specified. Cells were used from 4 up to 13 passages.
(§3) Cells were cultured in 48-well (SH-SY5Y, 1x10^5 cells per well) or 96-well plates (HepG2, 1x10^5 cells per well) for 24 h. […] Control cells were incubated with the same concentration of DMSO (0.1 % final concentration) without any drug.

[2] = molecular target: T1, Nrf2-Keap1 protein-protein interaction (Homo sapiens, UniProt Q14145); assay: Fluorescence polarization assay of Nrf2-Keap1 interaction; format: binding; settings: ligand concentration 10 µM; read-out: FP % Inhibition (± SEM)
T1 construct: a solution of the Keap1 Kelch domain (200 nM)
Protocol: Data are presented the means ± SEM of two experiments performed in triplicate.
The FP assay was carried out as previously described.^16,17 Inhibitors (10 µM) were plated onto untreated Corning® black 96 well plates containing a solution of the Keap1 Kelch domain (200 nM) and the fluorescent peptide FITC-β-DEETGEF-OH (1 nM) in Dulbecco’s Phosphate Buffered Saline (DPBS) at pH 7.4 (11% final DMSO concentration, 100 µL final volume). Following a 30 min incubation under slow agitation and away from light at room temperature, the plates were transferred to a PHERAstar microplate reader (BMG Labtech, Ortenberg, Germany) and the fluorescence polarisation was recorded. All measurements were recorded in triplicate.

SH-SY5Y cells [3] = assay: Cytotoxicity in SH-SY5Y neuroblastoma cell line (MTT); settings: 24 h
Protocol: as §2, §3

primary rat glial cells = assay: Nitrite production in LPS-stimulated primary glial cultures (Griess); format: cell-based; settings: Glial cell, 24 h pre-incubation, 18 h co-incubation with LPS 1 μg/mL, read-out: IC50 nitrite reduction
Source text: Therefore, we envisaged the study of compounds 5a–t as potential anti-inflammatory agents. We used primary rat glial cells treated with lipopolysaccharide (LPS) to induce the production of nitrites and ROS as a model of glial activation. Nitrite production is directly proportional to the expression of the iNOS, that is over-expressed when LPS activates glial cells. ROS production is proportional to NOX activation after stimulation with LPS. Results are summarized in Table 2 as IC50s of nitrite production reduction and ROS production reduction. We have included sulforaphane as control in all experiments (see the Supporting Information).
Glial cells were pre-incubated with increasing concentrations of compounds for 24 hours. Then, treatments were removed and cells were incubated with LPS (1 μg/mL) alone or in presence of each compound at the desired concentration. Nitrite production was assessed 18 hours later by modified Griess assay. Briefly, samples (150 μl) were mixed with dapsone (75 μl) and NEDA (75 μl), and the mixture was incubated at room temperature for 5 min. Light absorption was measured at 550 nm in a microplate reader (Labtech, Offenburg, Germany). All data were normalized to basal nitrite production, considering this value as 100% of nitrite production. IC50 values were calculated from dose-response curves represented as percentage of nitrite production reduction induced by the different concentrations of each compound.
Mixed glial cultures were obtained from cerebral cortex of 2-5 day-old Sprague-Dawley rats. After removal of blood vessels and meninges, the forebrains were dissociated in DMEM/F12 medium. After mechanical dissociation, cells were plated (3x10^5 cells/ml) in DMEM/F12 medium with 20% fetal bovine serum (FBS) and 1 % penicillin/streptomycin (10,000 units), at 37 °C and in a 5 % CO2-supplemented air atmosphere. After 5 days, medium was substituted by DMEM/F12 medium with 10 % FBS. Cells were cultured for 7-10 days before treatment.
Primary rat glial cells were treated with compounds 5a-t at increasing concentrations (3, 10, 30 and 60 µM) during 24 h. Thereafter, treatments were removed and glial cells were co-incubated with increasing concentrations of each compound and LPS (1 µg/mL) for 18 h more. At the end of this period, supernatant was collected and the presence of nitrites was analyzed by the Griess method with modifications.^20 Each plate included non-treated cells as basal nitrite production, sulforaphane (SFN, 10 µM) as positive control. Briefly, samples (150 µl) were mixed with DAPSONE (75 µl) and NEDA (75 µl), and the mixture was incubated at room temperature for 5 min. Light absorption was measured at 550 nm in a microplate reader (Labtech, Offenburg, Germany). All data were normalized to basal nitrite production, considering this value as 100% of nitrite production. EC50 values were calculated from dose-response curves represented as percentage of nitrite production reduction induced by the different concentrations of each compound. Concentration response curves were fitted by non-linear regression analysis of individual concentration-response curves using GraphPad Prism software (San Diego, CA, USA). EC50 values are expressed as mean ± SEM of four different experiments in triplicate.

Keap1 Kelch domain = molecular target: T2, Keap1 Kelch domain (Homo sapiens, UniProt Q14145); assay: Differential scanning fluorimetry assay; format: binding; settings: ligand concentration 10 µM
T2 construct: A solution of the Keap1 Kelch domain protein (5 µM)
Protocol: A solution of the Keap1 Kelch domain protein (5 µM) and detection dye SYPRO® orange (5X) in DPBS at pH 7.4 was added onto a qPCR plate containing the compound inhibitor (10 µM, 10% final DMSO concentration, 40 µL final volume). The plate was sealed using an optical foil seal and covered with aluminum foil to protect the dye from light. The plate was then transferred to a plate centrifuge and spun down briefly (200 G, 1 min, room temperature) to remove any bubbles and collect the solution at the bottom of the wells. Following a 30 min incubation at room temperature, the plate was placed into a 7500 Real time PCR machine and the fluorescence intensity at an excitation of 465 nm and emission of 580 nm was recorded during a temperature scan from 25 °C to 95 °C with a temperature ramping rate of 1 °C/min. All measurements were run in triplicate. Life Technologies software was used to set up the run on 7500 Software v.2.0.0 and the initial data processing was carried out on Protein thermal shift solution software. The raw data were exported to MS Excel and analysis was performed using a custom script provided by the Structural Genomics Consortium Oxford.^18 The temperature range over which the protein unfolding occurred was selected and the maximum and minimum (at temperatures below the maximum intensity) fluorescence intensities within this range were determined. The processed data were fitted to the Boltzmann equation by non-linear regression using the Origin Pro software.

SH-SY5Y cells [4] = assay: Neuroprotection against okadaic acid (tau hyperphosphorylation), MTT; format: cell-based; settings: 1 μM, 24 h pre-incubation, 18 h co-incubation with OA 20 nM

T1 sequence (Q14145 321-609 limits assumed): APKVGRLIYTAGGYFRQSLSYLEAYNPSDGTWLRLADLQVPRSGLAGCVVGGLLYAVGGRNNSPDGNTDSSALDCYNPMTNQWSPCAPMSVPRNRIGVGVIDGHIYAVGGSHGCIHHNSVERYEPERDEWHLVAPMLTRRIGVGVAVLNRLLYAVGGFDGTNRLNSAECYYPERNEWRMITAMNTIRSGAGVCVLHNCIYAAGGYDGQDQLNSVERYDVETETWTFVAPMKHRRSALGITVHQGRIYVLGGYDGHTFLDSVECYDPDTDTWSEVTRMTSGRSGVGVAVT
T2 sequence (Q14145 321-609 limits assumed): as above

Row | SMILES | Percentage of protection against R/O toxicity (SH-SY5Y cells [1]) [%] | HepG2 LD50 (HepG2 cells) [µM] | inhibition at 10 µM [2] [%] | SH-SY5Y LD50 (SH-SY5Y cells [3]) [µM] | IC50 (primary rat glial cells) [µM] | ΔTm at 10 µM (Keap1 Kelch domain) [°C] | Percentage of protection against okadaic acid toxicity (SH-SY5Y cells [4])
1 | COc1cccc(C2C(C#N)=C(N)Oc3n[nH]c(C)c32)c1 (stereo not drawn) [Compound 5c, 6-Amino-4-(3-methoxyphenyl)-3-methyl-2,4-dihydropyrano[2,3-c]pyrazole-5-carbonitrile] | 55.3 | > 100 | < 0 | > 100 | 12.9 ± 0.86 | -0.43 ± 0.49 | 
2 | Cc1[nH]nc2c1C(c1ccc(Br)cc1)C(C#N)=C(N)O2 (stereo not drawn) [Compound 5m, 6-Amino-4-(4-bromophenyl)-3-methyl-2,4-dihydropyrano[2,3-c]pyrazole-5-carbonitrile] |  | > 100 | < 0 | > 100 | 11.4 ± 2.27 | -0.14 ± 0.35 | over 50%
